Counter-ions that a name gives are not always drawn. Like-named read-outs stand apart in the source and are kept apart here.
Tests used:
Assay type in all cases: biochemical
human α-thrombin = target: T1, human α-thrombin (Homo sapiens, UniProt P00734); assay: Thrombin inhibition, Ki determination (hydrolysis of N-succinyl-Ala-Ala-Pro-Arg-p-nitroanilide); conditions: pH 7.5, 37° C.
T1 construct: Human α-thrombin, human factor Xa and human plasmin were obtained from Enzyme Research Laboratories; purchased Enzyme Research Laboratories (South Bend, Ind.)
Excerpt: (§1) All buffer salts were obtained from Sigma Chemical Company (St. Louis, Mo.), and were of the highest purity available. The enzyme substrates, N-benzoyl-Phe-Val-Arg-p-nitroanilide (Sigma B7632), N-benzoyl-Ile-Glu-Gly-Arg-p-nitroanilide hydrochloride (Sigma B2291), N-p-Tosyl-Gly-Pro-Lys-p-nitroanilide (Sigma T6140), N-succinyl-Ala-Ala-Pro-Phe-p-nitroanilide (Sigma S7388) and N-CBZ-Val-Gly-Arg-p-nitroanilide (Sigma C7271) were obtained from Sigma.
Human α-thrombin, human factor Xa and human plasmin were obtained from Enzyme Research Laboratories (South Bend, Ind.). Bovine α-chymotrypsin (Sigma C4129), bovine trypsin (Sigma T8642) and human kidney cell urokinase (Sigma U5004) were obtained from Sigma. Human leukocyte elastase was obtained from Elastin Products (Pacific, Mo.).
All assays are based on the ability of the test compound to inhibit the enzyme catalyzed hydrolysis of a peptide p-nitroanilide substrate. […] The final concentrations for each of the substrates is listed below. In general, substrate concentrations are lower than the experimentally determined value for Km. Test compounds are prepared as a 1.0 mg/ml solution in DMSO. Dilutions are prepared in DMSO yielding 8 final concentrations encompassing a 200 fold concentration range. Enzyme solutions are prepared at the concentrations listed below in assay buffer.
Data corresponding to less than 10% of the total substrate hydrolysis were used in the calculations. The ratio of the velocity (rate of change in absorbance as a function of time) for a sample containing no test compound is divided by the velocity of a sample containing test compound, and is plotted as a function of test compound concentration. The data are fit to a linear regression, and the value of the slope of the line calculated. The inverse of the slope is the experimentally determined Ki value.
Thrombin activity was assessed as the ability to hydrolyze the substrate N-succinyl-Ala-Ala-Pro-Arg-p-nitroanilide.

bovine α-chymotrypsin = assay: Chymotrypsin inhibition (hydrolysis of N-succinyl-Ala-Ala-Pro-Phe-p-nitroanilide); conditions: at 1.6 μM
Excerpt: as §1, with “Sigma. N-succinyl-Ala-Ala-Pro-Arg-p-nitroanilide (BACHEM L-1720) and N-succinyl-Ala-Ala-Pro-Val-p-nitroanilide (BACHEM L-1770) were obtained from BACHEM (King of Prussia, Pa.). […]” for “Sigma.”
(§2) All assays are based on the ability of the test compound to inhibit the enzyme catalyzed hydrolysis of a peptide p-nitroanilide substrate. […] In general, substrate concentrations are lower than the experimentally determined value for Km. […]
(§3) In a typical Ki determination, into each well of a 96 well plate is pipetted 280 μL of substrate solution, 10 μL of test compound solution, and the plate allowed to thermally equilibrate at 37° C. in a Molecular Devices plate reader for >15 minutes. Reactions were initiated by the addition of a 10 μL aliquot of enzyme and the absorbance increase at 405 nm is recorded for 15 minutes. […] The data are fit to a linear regression, and the value of the slope of the line calculated. The inverse of the slope is the experimentally determined Ki value. […]

bovine trypsin = assay: Trypsin inhibition (hydrolysis of N-benzoyl-Phe-Val-Arg-p-nitroanilide); conditions: at 1.6 μM
Excerpt: as §1, with “Sigma. N-succinyl-Ala-Ala-Pro-Arg-p-nitroanilide (BACHEM L-1720) and N-succinyl-Ala-Ala-Pro-Val-p-nitroanilide (BACHEM L-1770) were obtained from BACHEM (King of Prussia, Pa.). […]” for “Sigma.”
as §2, §3

human leukocyte elastase = assay: Elastase inhibition (hydrolysis of N-succinyl-Ala-Ala-Pro-Val-p-nitroanilide); conditions: at 1.6 μM
Excerpt: as §1, with “Sigma. N-succinyl-Ala-Ala-Pro-Arg-p-nitroanilide (BACHEM L-1720) and N-succinyl-Ala-Ala-Pro-Val-p-nitroanilide (BACHEM L-1770) were obtained from BACHEM (King of Prussia, Pa.). […]” for “Sigma.”
as §2, §3

human kidney urokinase = assay: Urokinase inhibition (hydrolysis of N-CBZ-Val-Gly-Arg-p-nitroanilide); conditions: at 1.6 μM
Excerpt: as §1, with “Sigma. N-succinyl-Ala-Ala-Pro-Arg-p-nitroanilide (BACHEM L-1720) and N-succinyl-Ala-Ala-Pro-Val-p-nitroanilide (BACHEM L-1770) were obtained from BACHEM (King of Prussia, Pa.). […]” for “Sigma.”
as §2, §3

human plasmin = assay: Plasmin inhibition (hydrolysis of N-p-Tosyl-Gly-Pro-Lys-p-nitroanilide); conditions: at 1.6 μM
Excerpt: as §1, with “Sigma. N-succinyl-Ala-Ala-Pro-Arg-p-nitroanilide (BACHEM L-1720) and N-succinyl-Ala-Ala-Pro-Val-p-nitroanilide (BACHEM L-1770) were obtained from BACHEM (King of Prussia, Pa.). […]” for “Sigma.”
as §2, §3

human factor Xa = assay: Factor Xa inhibition (hydrolysis of N-benzoyl-Ile-Glu-Gly-Arg-p-nitroanilide); conditions: at 1.6 μM
Excerpt: as §1, with “Sigma. N-succinyl-Ala-Ala-Pro-Arg-p-nitroanilide (BACHEM L-1720) and N-succinyl-Ala-Ala-Pro-Val-p-nitroanilide (BACHEM L-1770) were obtained from BACHEM (King of Prussia, Pa.). […]” for “Sigma.”
as §2, §3

| SMILES | Ki (human α-thrombin; Table 2, read-out: Ki (thrombin)) | % Inhibition (chymotrypsin) (bovine α-chymotrypsin) | % Inhibition (trypsin) (bovine trypsin) | % Inhibition (elastase) (human leukocyte elastase) | % Inhibition (urokinase) (human kidney urokinase) | % Inhibition (plasmin) (human plasmin) | % Inhibition (Factor Xa) (human factor Xa) | Ki (human α-thrombin; Table 1, read-out: Thrombin Ki) |
| --- | --- | --- | --- | --- | --- | --- | --- | --- |
| Cc1cc(OCCC=NNC(=N)N)cc(OS(=O)(=O)c2ccccc2Cl)c1 [Example 1, 2-[2-[3-(2-Chlorophenylsulfonyloxy)-5-methylphenoxy]ethyl-1-methylene]hydrazinecarboximidamide hydrochloride] | 0.013 µM | 0% | 0% | 0% | 0% | 0% | 0% | – |
| Cc1cc(OCCC=NNC(=N)N)cc(OS(=O)(=O)c2cccc(C#N)c2)c1 [Example 36, 2-[2-[3-(3-Cyanophenylsulfonyloxy)-5-methylphenoxy]ethyl-1-methylene]hydrazinecarboximidamide nitrate] | – | – | – | – | – | – | – | 0.068 µM |
| Cc1cc(OCC2(C=NNC(=N)N)CC2)cc(OS(=O)(=O)c2ccccc2C#N)c1 [Example 39, 2-[[1-[3-(2-Cyanophenylsulfonyloxy)-5-methylphenoxy]-methyl]cyclopropyl-1-methylene]hydrazinecarboximidamide acetate] | – | – | – | – | – | – | – | 0.052 µM |
